Assay results reported in PubChem BioAssay AID179 (DTP/NCI, 2004).
Active and inactive are the calls of the source.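 The calls were made as follows: active = compounds giving half or more protection of infected cells from virus-caused growth loss, again on retest; inactive = the rest.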

Test system: CEM cells HIV-1 protection, formazan growth assay
Experiment: NCI AIDS Antiviral Assay
Conditions: for IC50: measured here: growth of uninfected CEM cells
How it was run: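 Steps: treat uninfected and HIV-1-infected human CEM cells at five drug levels; quantify growth by soluble formazan; retest any compound reaching 50% protection; classify actives from the retest.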

Question: How did the EC50 turn out when `O=C1C2CCC(C2)C12CC1(c3ccccc3)C(=O)c3ccccc3N1O2` (configuration not stated) was run?
Answer: > 28.8 µM

Question: And the IC50?
Answer: 27.5 µM

Question: For `COc1ccc(NC(=O)CC(=O)N2N=C(N(CCC#N)c3cccc(C)c3)CC2c2ccccc2)cc1` (configuration not stated), which EC50 is on record?
Answer: > 100 µM

Question: What about the IC50 of the same compound?
Answer: > 100 µM

Question: Which results are given for `CSc1csc(-c2ccc(-c3ccc(-c4cc(SC)cs4)s3)s2)c1`?
Answer: EC50: > 100 µM; IC50: > 100 µM

Question: With `CC(=O)N1C(=O)CC(c2ccccc2)Sc2ccccc21` (configuration not stated) as the compound, how does the EC50 read?
Answer: > 151 µM

Question: And the IC50?
Answer: > 151 µM

Question: Which EC50 does the source give for `Cc1ccc(N=Nc2c(-c3ccccc3)nn(C(=O)CC(=O)Nc3ccc(Cl)cc3)c2-c2ccccc2)cc1` here?
Answer: > 9.77 µM

Question: And the IC50?
Answer: > 9.77 µM

Question: For `NC(=O)c1c(Cl)nc2n1CCS2`, which EC50 is on record?
Answer: > 200 µM

Question: And the IC50?
Answer: > 200 µM

Question: For `CCOC(=O)C1c2[nH]c3ccccc3c2CCN1C(=O)c1ccco1` (configuration not stated), which EC50 is on record?
Answer: > 77.6 µM

Question: And the IC50?
Answer: > 77.6 µM

Question: For `COc1ccc2nc3ccc(OC)cc3c(SCC3CO3)c2c1` (configuration not stated), which EC50 is on record?
Answer: > 200 µM

Question: And the IC50?
Answer: 3.63 µM

Question: Which outcome does the source give for `C=C(c1ccccc1)[C@@]1(O)CC[C@@H]1N(CC#N)Cc1ccccc1` here?
Answer: inactive

Question: What does the source list for `O=c1c2cc(Br)ccc2ncn1COCc1ccccc1`?
Answer: EC50: > 200 µM; IC50: 89.1 µM

Question: Which outcome does the source give for `O=[N+]([O-])O.[Tb]` here?
Answer: inactive

Question: For `COC(=O)[C@H](Cc1ccccc1)NP(=O)(O)OCC1OC(n2cc(C)c(=O)[nH]c2=O)CC1N=[N+]=[N-]` (some centres not stated), which EC50 is on record?
Answer: 0.0251 µM

Question: And the IC50?
Answer: 10 µM

Question: For `COC1C=COC2(C)Oc3c(C)c(O)c4c(O)c(c(C5SCCS5)c(O)c4c3C2=O)NC(=O)/C(C)=C\C=CC(C)C(O)C(C)C(O)C(C)C(OC(C)=O)C1C` (configuration not stated), which EC50 is on record?
Answer: > 200 µM

Question: And the IC50?
Answer: 0.646 µM

Question: How did the outcome turn out when `O=C(O)C1CC2C=CCC(C2)C1` (configuration not stated) was run?
Answer: inactive

Question: What does the source list for `C=CC(C)(C)c1cc(O)c2oc3c(O)cccc3c(=O)c2c1O`?
Answer: EC50: > 151 µM; IC50: 37.2 µM

Question: With `CCOc1cc2c(cc1C(C)c1ccc(OC)cc1)OCO2` (configuration not stated) as the compound, how does the EC50 read?
Answer: > 33.1 µM

Question: And the IC50?
Answer: 0.214 µM

Question: Which EC50 does the source give for `CCCCCCCCCCCCCCCC(=O)Nc1ccn(C2CCC(COP(=O)(O)OCC3OC(n4ccc(NC(=O)CCCCCCCCCCCCCCC)nc4=O)CC3OP(=O)(O)OCC3OC(n4ccc(NC(=O)CCCCCCCCCCCCCCC)nc4=O)CS3)O2)c(=O)n1` (configuration not stated) here?
Answer: 1.1 µM

Question: And the IC50?
Answer: 83.2 µM

Question: How did the EC50 turn out when `O=c1[nH]nc(Cc2ccccc2)n1/N=C/c1ccc([N+](=O)[O-])cc1` was run?
Answer: > 200 µM

Question: And the IC50?
Answer: > 200 µM

Question: How did the outcome turn out when `CC(=O)N(C(=O)CC(=O)NN)c1ccc(Cl)cc1` was run?
Answer: inactive

Question: For `COc1cc(/C=C2\C(=O)N(c3cccc([N+](=O)[O-])c3)C(c3ccccc3)S2(=O)=O)cc(OC)c1OC` (configuration not stated), which outcome is on record?
Answer: inactive

Question: How did the outcome turn out when `O=C1C(c2ccc3ccccc3n2)=C(O)c2ccccc21` was run?
Answer: inactive

Question: What does the source list for `CC1C(c2ccccc2)NC(c2ccccc2)CC1(N)C#N` (configuration not stated)?
Answer: EC50: > 123 µM; IC50: > 123 µM

Question: Which results are given for `CN(/N=C/C=N/N(C)C1=NCCCCN1)C1=NCCCCN1`?
Answer: EC50: > 200 µM; IC50: > 200 µM

Question: Which outcome does the source give for `CNC(=O)O/N=C(\C(=N\OC(=O)NC)c1ccccc1)c1ccccc1` here?
Answer: inactive

Question: `CCOC(=O)C(/C(=N/NC(=O)OC)C(=O)Nc1ccc(C(C)=O)cc1)c1cnc2ccccc2n1` (configuration not stated) was tested. Which EC50 did it give?
Answer: > 39.8 µM

Question: And the IC50?
Answer: > 39.8 µM

Question: With `COc1cc([C@H]2Oc3c(OC)cc(/C=C/C(=O)O)cc3[C@@H]2C(=O)O)ccc1O` as the compound, how does the EC50 read?
Answer: 120 µM

Question: And the IC50?
Answer: > 200 µM

Question: `O=C(Nc1cc(C(=O)Nc2ccc(C3=NCCN3)cc2)cc(C2=NCCN2)c1)c1ccc(C(=O)Nc2cc(C(=O)Nc3ccc(C4=NCCN4)cc3)cc(C3=NCCN3)c2)cc1` was tested. Which EC50 did it give?
Answer: 5.37 µM

Question: And the IC50?
Answer: 89.1 µM

Question: How did the EC50 turn out when `O=c1cc(NCCCCCO)[nH]c(=O)[nH]1` was run?
Answer: > 200 µM

Question: And the IC50?
Answer: > 200 µM

Question: For `COc1cc(N=Nc2ccccc2C(=O)O)cc(/C=N\NNC(N)=S)c1O`, which EC50 is on record?
Answer: > 67.6 µM

Question: And the IC50?
Answer: 32.4 µM

Question: With `CC1N=C(c2ccccc2)OC1=O` (configuration not stated) as the compound, how does the EC50 read?
Answer: > 200 µM

Question: And the IC50?
Answer: > 200 µM

Question: What does the source list for `Cn1c(/C=C(\O)c2ccccc2)nc2ccccc21`?
Answer: EC50: > 105 µM; IC50: 83.2 µM

Question: Which results are given for `CC(CC[C@@]1(C)C(=O)CCC2O[C@]21C)[C@H]1C[C@@H](c2ccoc2)OC1=O` (some centres not stated)?
Answer: EC50: > 200 µM; IC50: 34.7 µM

Question: `N#Cc1cccc(N(C(=O)c2ccccc2)c2ccccc2)n1` was tested. Which EC50 did it give?
Answer: > 200 µM

Question: And the IC50?
Answer: 112 µM

Question: How did the EC50 turn out when `O=C1c2ccccc2-c2c1c1ccccc1c(=O)n2Cc1ccccc1` was run?
Answer: > 29.5 µM

Question: And the IC50?
Answer: > 29.5 µM

Question: For `Cc1ccc2c(c1)-c1[nH]c3ccccc3c1CS2`, which outcome is on record?
Answer: inactive

Question: Which results are given for `C1=CC2C=CC(C=C1)[PH+]2c1ccccc1.[C-]#[O+].[C-]#[O+].[C-]#[O+].[C-]#[O+].[C-]#[O+].[Cr]` (configuration not stated)?
Answer: EC50: > 6.76 µM; IC50: > 6.76 µM

Question: How did the outcome turn out when `CNC(C)C#N` (configuration not stated) was run?
Answer: inactive

Question: What does the source list for `CCCNC(=O)OCCCOC(=O)/C=C(\C(=O)OCCCOC(=O)NCCC)N1[C@H](C)Cc2c(-c3cc(-c4cc(-c5c(O)cc(O)c6c5C[C@@H](C)N[C@@H]6C)c5cc(C)cc(OC)c5c4O)c(O)c4c(OC)cc(C)cc34)c(O)cc(O)c2[C@H]1C`?
Answer: EC50: > 25.1 µM; IC50: > 25.1 µM

Question: With `CCC1(O)N=C(c2ccccc2)c2ccccc2-n2cccc21` (configuration not stated) as the compound, how does the EC50 read?
Answer: > 200 µM

Question: And the IC50?
Answer: 166 µM

Question: For `NC(CSC[C@H](N)C(=O)O)C(=O)O` (some centres not stated), which outcome is on record?
Answer: inactive

Question: Which EC50 does the source give for `COc1ccc(/C=C(/C(=O)c2ccccc2)c2ccccc2)cc1` here?
Answer: > 8.71 µM

Question: What about the IC50 of the same compound?
Answer: > 8.71 µM
